The series in a line: gradient 5% acetonitrile 3 min, to 50% in 2 min, to 85% in 15 min, held 3 min, 100 µL/min. As to conditions: column: Zorbax Extend-C18 2.1 x 50 mm; eluents: water / acetonitrile, 0.1% formic acid. The gist of the method: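 Over 3 months, pure standards in mixtures of ~100 molecules were run by HPLC coupled to a quadrupole time-of-flight mass spectrometer in positive and negative ionization mode. The column was a Zorbax Extend-C18 (2.1 × 50 mm, 1.8 μm) at 100 μL/min, eluted with water and acetonitrile each holding 0.1% formic acid, with 40 μL dead and 900 μL dwell volumes. Retention time was determined from adduct peaks chosen by software and checked manually.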
Regarding `CCNC(=O)N1CCc2c([nH]c3ccc(C)cc23)C12C(=O)N(C)c1ccccc12` (stereo not given), the RP-LC retention time was 798 s.

Regarding `CC1=C(c2ccc(C)c(C)c2)S(=O)(=O)N=C1N1CCCN(C(=O)c2cccs2)CC1`, the RP-LC retention time amounted to 874 s.

In the case of `O=C(O)c1ccc(N2CCN(c3ccccn3)CC2)c(NS(=O)(=O)c2ccc(F)c(F)c2)c1`, the RP-LC retention time was determined as 649 s.

In turn, `CCOC(=O)CNC(=O)N1CCC(n2c(-c3ccc(C)cc3)nc3cccnc32)C1` (stereo not given) returned an RP-LC retention time of 642 s.

`CCOc1ccc(NC(=O)N2CCC3(C2)C(=O)Nc2ccccc23)cc1` (stereo not given) came in with an RP-LC retention time of 720 s.

Consider `CCC(C)NC(=O)c1ccc2c(c1)Sc1ncccc1C(=O)N2CC` (stereo not given), for which the RP-LC retention time was found to be 749 s.

For `CN1CCCC1c1nc(C2CN(C(=O)Cn3c(=O)oc4ccccc43)C2)no1` (stereo not given), the RP-LC retention time is 582 s.

`CN1CCN(c2cccc(Nc3nc4c(-c5ccc(S(C)(=O)=O)cc5)cccn4n3)c2)CC1` displayed an RP-LC retention time of 675 s.

Regarding `Cc1ccc(N2CCC(NC(=O)Nc3ccc(F)cc3F)C2=O)cc1C` (stereo not given), the RP-LC retention time is 903 s.

`Cc1ccc2c(c1)N(Cc1cc(F)cc(F)c1)N=C(C(=O)N1CCCC1)S2(=O)=O` came in with an RP-LC retention time of 900 s.

In the case of `Cc1csc(-c2ccc(CNC(=O)c3cc4ccccc4[nH]3)cc2)n1`, the RP-LC retention time was 938 s.

For `O=C(Cn1cnc2nc3c(cc2c1=O)CCCC3)Nc1ccc(Br)cc1F`, the RP-LC retention time was 791 s.

`CCOc1ccc(-c2cc3n(n2)CCCN(C(=O)c2cc(C)n(C)n2)C3)cc1` displayed an RP-LC retention time of 698 s.

`CCN1C(=O)c2c(C(=O)NCc3ccc(C)cc3)ncn2CC1(C)C(=O)NC1CCCC1` (stereo not given) came in with an RP-LC retention time of 783 s.

Compound `O=C(NCc1ccc(N2CCOCC2)cc1)c1cccc2c1CCN2C(=O)C1CC1` came in with an RP-LC retention time of 735 s.

Take `COc1ccc(-c2nnc(Cc3nc(-c4ccc(SC)cc4)no3)o2)cc1`: the RP-LC retention time was 1040 s.

`COc1ccccc1N1C(=O)N(c2ccc([N+](=O)[O-])cc2)C2CS(=O)(=O)CC21` (stereo not given) had an RP-LC retention time of 745 s.

Turning to `COc1ccccc1NC(=O)N1C[C@@H](F)C[C@H]1C(=O)N1CCOCC1`, the RP-LC retention time is 625 s.

As to `COc1ccc(NC(=O)Cn2nc3c(Oc4ccc(Cl)cc4)nccn3c2=O)cc1`, the RP-LC retention time was 832 s.

As for `Cc1c(Cl)cccc1NC(=O)CC1COc2ccccc2NC1=O` (stereo not given), the RP-LC retention time worked out at 756 s.

Compound `CCN(CC)CCNC(=O)C1c2ccccc2Oc2ccccc21` displayed an RP-LC retention time of 655 s.

`Cc1c(CC(=O)N2CCC(C(N)=O)CC2)c(=O)oc2c(C)c3occ(C(C)(C)C)c3cc12` showed an RP-LC retention time of 821 s.

For the compound `CCCn1ccc2oc(C)c(C(=O)N3CCC(N4CCCCC4)CC3)c2c1=O`, the RP-LC retention time amounted to 590 s.

`O=C(Cc1cccc(C(F)(F)F)c1)Nc1cccn2cnnc12` returned an RP-LC retention time of 744 s.

The compound `COc1ccc(Nc2nc(-c3nnn(-c4ccc(F)cc4F)c3C)ns2)cc1OC` came in with an RP-LC retention time of 900 s.

`O=C(CSc1nccc(N2CCC(Cc3ccccc3)CC2)n1)NCCCc1ccccc1` displayed an RP-LC retention time of 906 s.

Regarding `O=C(Cc1cccc(Cl)c1)Nc1cc(-c2ccccn2)no1`, the RP-LC retention time stood at 843 s.

In the case of `COc1ccc(NC(=O)c2cn(-c3cc(N(C)C)ncn3)cn2)cc1OC`, the RP-LC retention time stood at 678 s.

Compound `Cc1csc(C(=O)NCCC(O)C(C)(C)C)c1` (stereo not given) returned an RP-LC retention time of 718 s.

With `COc1ccc(OCC(=O)Nc2ccc(-c3nc(-c4ccc(OC)cc4)no3)cc2)cc1`, the RP-LC retention time was 1180 s.

Compound `O=C(NC1CCN(c2nnc3ccc(Cl)cn23)CC1)c1ccc(C(F)(F)F)s1` yielded an RP-LC retention time of 837 s.

As to `CCNC(=O)Cc1nnc(-c2ccc(C)cc2)o1`, the RP-LC retention time was found to be 664 s.

`COc1ccc(-c2nc(C)cc(C)c2CNC(=O)C2CCCC2)cc1` gave an RP-LC retention time of 638 s.

Consider `CCOc1ccc(NC(=O)C2CCCN(c3nnc4ccccn34)C2)cc1` (stereo not given), for which the RP-LC retention time is 674 s.

The compound `COCCCNc1c(-c2ccc(F)cc2)nc2sc(C(=O)N3CCOCC3)c(C)n12` displayed an RP-LC retention time of 741 s.

In turn, `CC1CCN(S(=O)(=O)c2cccn(CC(=O)N3CCCc4ccccc43)c2=O)CC1` came in with an RP-LC retention time of 910 s.

`Cc1ccccc1OCC(=O)NCc1c(C)noc1C` displayed an RP-LC retention time of 790 s.

Take `C=CCN1C(=O)COc2ccc(-c3csc(NC(=O)C4CC4)n3)cc21`: the RP-LC retention time worked out at 842 s.

The compound `Cc1c(C)n(C)c2ccc(C(=O)NCC(C)C)cc12` came in with an RP-LC retention time of 909 s.

For `O=C(N[C@@H]1CN(c2ncccn2)C[C@H]1CO)C1CC=CC1`, the RP-LC retention time came to 567 s.

In turn, `Cc1cc(F)ccc1NC(=O)Cn1c(N)nc(C)c(C)c1=O` displayed an RP-LC retention time of 617 s.

Compound `COc1nc2c(c(C)nn2-c2ccccc2)c(C)c1CCC(=O)NCCc1c[nH]c2ccccc12` yielded an RP-LC retention time of 1130 s.

`CCOC(=O)c1cccc(NC(=O)CCc2ccc3nc(CC)[nH]c3c2)c1` yielded an RP-LC retention time of 638 s.

`CCc1nc2cc(-c3noc(-c4cccc(OC)c4OC)n3)ccc2o1` showed an RP-LC retention time of 1130 s.

Regarding `CCC(C)NC(=O)Cn1cnc2nc(N3CCC(C(=O)NC4CC4)CC3)sc2c1=O` (stereo not given), the RP-LC retention time was found to be 1140 s.

Consider `CCc1ccc(-c2nc(C3CC(=O)N(c4ccc(F)cc4)C3)no2)cc1` (stereo not given), for which the RP-LC retention time turned out to be 1110 s.

For the compound `Cn1cnnc1SCC(=O)N1CCCc2ccccc21`, the RP-LC retention time worked out at 636 s.

For the compound `Cc1cccc(-c2noc(-c3nn(CC(=O)NC4CCCCC4)c4ccccc34)n2)c1`, the RP-LC retention time was found to be 1250 s.

For the compound `CN(C)c1ccc(CCCNS(=O)(=O)c2ccc(Cl)s2)cc1`, the RP-LC retention time was determined as 655 s.

On to `CC(C)c1ccc(NC(=O)C2CCc3nc(N4CCOCC4)ncc3C2)cc1` (stereo not given), for which the RP-LC retention time turned out to be 888 s.

For the compound `CCN(CCNC(=O)c1ccc2[nH]c3c(c2c1)CN(C(C)=O)CC3)c1ccccc1`, the RP-LC retention time turned out to be 1160 s.

`COc1ccc(-c2cc3nn(CC(=O)Nc4ccccc4F)c(=O)n3c(C)n2)cc1` gave an RP-LC retention time of 901 s.

The compound `CCc1cccc(NC(=O)Cn2c(N3CCCC3)nc(C)cc2=O)c1` yielded an RP-LC retention time of 682 s.

In turn, `O=C(Nc1c(-c2ccccc2)nc2ccc(Cl)cn12)c1ccc(F)cc1` gave an RP-LC retention time of 750 s.

`Cc1cccc(Cn2nc(-c3nc(C)no3)ccc2=O)c1`: the RP-LC retention time came to 789 s.

`CCOC(=O)c1ccc(OCCC2CCN(c3ccc(C)nn3)CC2)cc1` came in with an RP-LC retention time of 837 s.

`CC(=O)NCCc1csc(C2CCN(C(=O)C3CCCC3)CC2)n1`: the RP-LC retention time turned out to be 676 s.

The compound `C[C@@H](Oc1cc(-n2cnc3ccc(CN4CCN(C)CC4)cc32)sc1C(N)=O)c1ccccc1C(F)(F)F` gave an RP-LC retention time of 690 s.

`CCOC(=O)C1CCN(C(=O)C2CN(C(=O)c3ccncc3)CC23CCCCC3)CC1` (stereo not given) showed an RP-LC retention time of 703 s.

`CCCC(=O)N1CCCN(C2=NS(=O)(=O)C(c3ccc(Cl)cc3)=C2C)CC1` returned an RP-LC retention time of 834 s.
